Measured values as given in US8859543B2, “Imidazo[1,2-a]pyrazine derivatives and their use for the prevention or treatment of neurological, psychiatric and metabolic disorders and diseases” (Janssen Pharmaceutica NV, priority 2010, dated 2014).
Like-named read-outs stand apart in the source and are kept apart here.

Assays:
[1] = target: T1, Rat recombinant PDE10A (rPDE10A2) (Rattus norvegicus, UniProt Q9QYJ6); experiment: In vitro assay PDE10A (SPA, 3H-cAMP); type: biochemical; conditions: pIC50 corresponds to the -log IC50 expressed in mol/L; for IC50: read-out: PDE10A2 pIC50 (converted)
T1 construct: made in house; host or cells: Sf9 insect cells, baculovirus
T1 sequence (Q9QYJ6 1-794): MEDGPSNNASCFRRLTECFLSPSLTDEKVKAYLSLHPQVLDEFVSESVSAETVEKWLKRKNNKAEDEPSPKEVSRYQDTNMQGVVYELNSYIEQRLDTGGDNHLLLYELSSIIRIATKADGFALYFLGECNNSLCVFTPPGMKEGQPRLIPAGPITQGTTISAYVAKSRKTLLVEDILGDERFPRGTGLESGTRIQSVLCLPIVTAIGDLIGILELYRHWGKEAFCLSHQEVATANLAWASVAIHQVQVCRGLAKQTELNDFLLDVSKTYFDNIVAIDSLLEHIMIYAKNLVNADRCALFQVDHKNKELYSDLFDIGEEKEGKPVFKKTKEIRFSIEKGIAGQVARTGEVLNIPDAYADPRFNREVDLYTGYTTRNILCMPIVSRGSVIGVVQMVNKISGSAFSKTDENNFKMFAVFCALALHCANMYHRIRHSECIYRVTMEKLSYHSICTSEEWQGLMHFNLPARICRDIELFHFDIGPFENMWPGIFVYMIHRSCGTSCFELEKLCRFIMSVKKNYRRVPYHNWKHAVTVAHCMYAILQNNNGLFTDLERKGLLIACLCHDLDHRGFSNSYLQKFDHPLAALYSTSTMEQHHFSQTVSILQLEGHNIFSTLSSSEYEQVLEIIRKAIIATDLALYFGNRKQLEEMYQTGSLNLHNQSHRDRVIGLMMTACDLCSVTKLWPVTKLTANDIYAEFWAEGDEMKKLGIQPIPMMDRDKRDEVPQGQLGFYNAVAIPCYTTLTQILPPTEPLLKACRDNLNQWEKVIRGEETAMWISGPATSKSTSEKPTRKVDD
Protocol: Rat recombinant PDE10A (rPDE10A2) was expressed in Sf9 cells using a recombinant rPDE10A baculovirus construct. Cells were harvested after 48 h of infection and the rPDE10A protein was purified by metal chelate chromatography on Ni-sepharose 6FF. Tested compounds were dissolved and diluted in 100% DMSO to a concentration 100 fold of the final concentration in the assay. Compound dilutions (0.4 μl) were added in 384 well plates to 20 μl of incubation buffer (50 mM Tris pH 7.8, 8.3 mM MgCl2, 1.7 mM EGTA). 10 μl of rPDE10A enzyme in incubation buffer was added and the reaction was started by addition of 10 μl substrate to a final concentration of 60 nM cAMP and 0.008 μCi ^3H-cAMP. The reaction was incubated for 60 min. at RT. […] After sedimentation of the beads during 30 min. the radioactivity was measured in a Perkin Elmer Topcount scintillation counter and results were expressed as cpm. For blank values the enzyme was omitted from the reaction and replaced by incubation buffer. Control values were obtained by addition of a final concentration of 1% DMSO instead of compound. The same assay principle is applied for the measurement of the affinity of the compound for other members of the PDE family with appropriate modifications in incubation buffer, substrate concentration, incubation time and stop solution.

[2] = system: apomorphine-induced stereotypy; experiment: Apomorphine-induced stereotypy in rats (APO); type: in vivo; conditions: Rattus norvegicus
Protocol: Apomorphine-Induced Stereotypy in Rats (APO)
Apomorphine (1.0 mg/kg, i.v.)-induced stereotypy (compulsive sniffing, licking, chewing) was scored every 5 min. over the first hour after injection of apomorphine, following a 1 hour interval pre-treatment with the test compound. The score system was: (3) pronounced, (2) moderate, (1) slight, and (O) absent.

[3] = target: T2, PDE10 (Rattus norvegicus, UniProt Q9QYJ6); experiment: PDE10 occupancy ([3H]-MP-10, striatum); type: in vivo; conditions: for ED50 / receptor occupancy at 10 mg/kg: rat; for ED50: occupancy, read-out: Occ. ED50; for receptor occupancy at 10 mg/kg: 1 h, read-out: % occ. printed under Occ. ED50 >10
T2 construct: from tissue; host or cells: rat brain sections, striatum (ex vivo autoradiography after in vivo dosing)
T2 sequence (Q9QYJ6 1-794): T1 sequence (Q9QYJ6 1-794)
Protocol: Dose-response or single dose experiments were performed to measure PDE10 occupancy 1 hour after subcutaneous (s.c.) or oral (p.o.) administration. Male Wistar rats (200 g) were treated by s.c. or p.o. administration of various PDE10 inhibitors. The PDE10 radioligand [^3H]-MP-10 (10 μCi/animal) was injected intravenously (i.v.) 30 minutes before sacrifice. Brains were immediately removed from the skull and rapidly frozen. Twenty μm-thick brain sections were cut using a cryostat-microtome, thaw-mounted on microscope slides and loaded in a β-imager to quantify PDE10 occupancy in the striatum.

[4] = not active at 2.5 or at 10 mg/kg, not further tested, read-out: APO ED50 (not active at threshold dose)

Cc1nc2c(N3CCOCC3)nccn2c1-c1ccc(N2CCOCC2)nc1 [compound 4, 2-Methyl-8-morpholin-4-yl-3-(6-morpholin-4-yl-pyridin-3-yl)-imidazo[1,2-a]pyrazine]
IC50 [1]: 0.141 µM | ED50 ([2]; read-out: APO ED50): 3.1 mg/kg | % Occ. at 10 mg/kg ([3]; administered s.c.): 28%

COCCc1ccc(-c2c(C)nc3c(-c4ccncc4)nccn23)cn1 [compound 8, 3-[6-(2-Methoxy-ethyl)-pyridin-3-yl]-2-methyl-8-pyridin-4-yl-imidazo[1,2-a]pyrazine]
ED50 ([2]; read-out: APO ED50): 1.2 mg/kg | ED50 ([3]; sc, administered s.c.): 2.6 mg/kg

COCCc1ccc(-c2c(C(F)(F)F)nc3c(N4CCOCC4)nccn23)cn1 [compound 12, 3-[6-(2-Methoxy-ethyl)-pyridin-3-yl]-8-morpholin-4-yl-2-trifluoromethyl-imidazo[1,2-a]pyrazine]
ED50 ([2]; read-out: APO ED50): ≤ 2.5 mg/kg | receptor occupancy at 10 mg/kg ([3]; sc): 22% | ED50 ([3]; sc, administered s.c.): > 10 mg/kg

COCCc1ccc(-c2c(OC)nc3c(N4CCOCC4)nccn23)cn1 [compound 15, 2-Methoxy-3-[6-(2-methoxy-ethyl)-pyridin-3-yl]-8-morpholin-4-yl-imidazo[1,2-a]pyrazine]
ED50 ([2]; read-out: APO ED50): 1.2 mg/kg | ED50 ([3]; sc, administered s.c.): 1.5 mg/kg

Cc1nc2c(N3CCOCC3)nccn2c1-c1ccc(C2CC2)nc1 [compound 28, 3-(6-Cyclopropyl-pyridin-3-yl)-2-methyl-8-morpholin-4-yl-imidazo[1,2-a]pyrazine]
ED50 ([2]; po, * compound was not soluble and was tested orally as a suspension, read-out: APO ED50): 1.2 mg/kg | receptor occupancy at 10 mg/kg ([3]; sc): 31% | ED50 ([3]; sc, administered s.c.): > 10 mg/kg

Cc1nc2c(N3CCOCC3)nccn2c1-c1cnc(CC(C)C)s1 [compound 42, 3-(2-Isobutyl-thiazol-5-yl)-2-methyl-8-morpholin-4-yl-imidazo[1,2-a]pyrazine]
ED50 ([2]; read-out: APO ED50): 5 mg/kg | % Occ. at 10 mg/kg ([3]; administered s.c.): 59%

COC[C@H](C)n1cc(-c2c(C)nc3c(-c4ccncc4)nccn23)cn1 [compound 79]
IC50 [1]: 0.107 µM | ED50 ([2]; read-out: APO ED50): 5 mg/kg

Cc1nc2c(N3CCOCC3)nccn2c1-c1cnn(C(C)C)c1 [compound 81]
PDE10A2 pIC50 [1]: 6.95 | ED50 [2, 4]: > 2.5 mg/kg

Cc1nc2c(N3CCOCC3)nccn2c1-c1cnn(C2CCOC2)c1 (stereo not drawn) [compound 82]
IC50 [1]: 0.115 µM | ED50 ([2]; read-out: APO ED50): 3.1 mg/kg

c1cn2c(-c3ccc(C4CCOCC4)nc3)c(C3CC3)nc2c(N2CCOCC2)n1 [compound 83]
IC50 [1]: 0.115 µM | ED50 [2, 4]: > 2.5 mg/kg

c1cn2c(-c3ccc(N4CCNCC4)nc3)c(C3CC3)nc2c(N2CCOCC2)n1 [compound 87]
IC50 [1]: 0.126 µM | ED50 [2, 4]: > 2.5 mg/kg

Cc1nc2c(N3CCOCC3)nccn2c1-c1cnn(CC2CCOCC2)c1 [compound 89]
IC50 [1]: 0.135 µM | ED50 ([2]; read-out: APO ED50): ≤ 10 mg/kg

Cc1nc2c(N3CCOCC3)nccn2c1-c1ccnc(N2CCOCC2)c1 [compound 91]
IC50 [1]: 0.135 µM | ED50 [2, 4]: > 2.5 mg/kg

Cc1nc2c(N3CCOCC3)nccn2c1-c1cnn(Cc2ccccc2Cl)c1 [compound 94]
PDE10A2 pIC50 [1]: 6.86 | ED50 [2, 4]: > 2.5 mg/kg

COc1nc2c(N3CCOCC3)nccn2c1-c1ccc(CC(C)(C)OC)nc1 [compound 95]
IC50 [1]: 0.141 µM | ED50 [2, 4]: > 2.5 mg/kg

Cc1nc2c(N3CCOCC3)nccn2c1-c1cnn(CCF)c1 [compound 96]
IC50 [1]: 0.141 µM | ED50 ([2]; read-out: APO ED50): 5 mg/kg

Cc1nc2c(N3CCOCC3)nccn2c1-c1ccnc(N2CCCC2)c1 [compound 99]
IC50 [1]: 0.151 µM | ED50 [2, 4]: > 2.5 mg/kg

CO[C@@H](C)Cn1cc(-c2c(C)nc3c(-c4ccncc4)nccn23)cn1 [compound 101]
IC50 [1]: 0.162 µM | ED50 ([2]; read-out: APO ED50): 3.1 mg/kg

COCCCn1cc(-c2c(C)nc3c(-c4ccncc4)nccn23)cn1 [compound 102]
IC50 [1]: 0.166 µM | ED50 ([2]; read-out: APO ED50): 5 mg/kg

COC[C@@H](C)n1cc(-c2c(C)nc3c(-c4ccncc4)nccn23)cn1 [compound 104]
IC50 [1]: 0.17 µM | ED50 ([2]; read-out: APO ED50): 5 mg/kg

COC(C)(C)COc1ccc(-c2c(C3CC3)nc3c(N4CCOCC4)nccn23)cn1 [compound 105]
IC50 [1]: 0.174 µM | ED50 [2, 4]: > 2.5 mg/kg

COC[C@@H](C)n1cc(-c2c(C)nc3c(N4CCOCC4)nccn23)cn1 [compound 110]
IC50 [1]: 0.214 µM | ED50 ([2]; read-out: APO ED50): 3.1 mg/kg

CCC(COC)n1cc(-c2c(C)nc3c(N4CCOCC4)nccn23)cn1 (stereo not drawn) [compound 111]
IC50 [1]: 0.219 µM | ED50 [2, 4]: > 2.5 mg/kg

Cc1nc2c(N3CCOCC3)nccn2c1-c1cnn(Cc2ccc3ccccc3n2)c1 [compound 112]
PDE10A2 pIC50 [1]: 6.63 | ED50 [2, 4]: > 2.5 mg/kg

Cc1nc2c(N3CCOCC3)nccn2c1-c1cnc(C(C)C)[nH]1 [compound 114]
IC50 [1]: 0.263 µM | ED50 [2, 4]: > 2.5 mg/kg

Cc1nc2c(-c3ccncc3)nccn2c1-c1ccc(N2CCOCC2)nc1 [compound 115]
IC50 [1]: 0.263 µM | ED50 ([2]; read-out: APO ED50): 5 mg/kg

Cc1nc2c(N3CCOCC3)nccn2c1-c1cnn(CCN2CCOCC2)c1 [compound 116]
IC50 [1]: 0.275 µM | ED50 [2, 4]: > 2.5 mg/kg

Cc1nc2c(N3CCOCC3)nccn2c1-c1cnn(Cc2ccc(Cl)cc2)c1 [compound 121]
IC50 [1]: 0.372 µM | ED50 [2, 4]: > 2.5 mg/kg

Cc1nc2c(N3CCOCC3)nccn2c1-c1ccc(OCC(F)(F)F)nc1 [compound 122]
IC50 [1]: 0.38 µM | ED50 [2, 4]: > 2.5 mg/kg

Cc1nc2c(N3CCOCC3)nccn2c1-c1ccc(OCC2CC2)nc1 [compound 134]
IC50 [1]: 0.562 µM | ED50 ([2]; read-out: APO ED50): ≤ 10 mg/kg

COCCn1cc(-c2c(C)nc3c(-c4cccnc4)nccn23)cn1 [compound 135]
PDE10A2 pIC50 [1]: 6.25 | receptor occupancy at 10 mg/kg ([3]; po): 29% | ED50 ([3]; po, administered p.o. (a)): > 10 mg/kg

COCCc1ccc(-c2cnc3c(N4CCOCC4)nccn23)cn1 [compound 136]
IC50 [1]: 0.575 µM | ED50 [2, 4]: > 2.5 mg/kg

Cc1nc2c(-c3ccncc3)nccn2c1-c1cnn(CCO)c1 [compound 138]
IC50 [1]: 0.724 µM | ED50 [2, 4]: > 2.5 mg/kg

COCCn1cc(-c2cnc3c(N4CCOCC4)nccn23)cn1 [compound 141]
IC50 [1]: 0.955 µM | ED50 ([2]; read-out: APO ED50): 5 mg/kg
